# Source: ChEMBL document CHEMBL6096636 (Bioorg Med Chem, 2024)
# The source made the active and inactive calls. The calls are words filed in the database; no cut-off is given here.
# Tests used:
# [1] = Cytotoxicity against human HepG2 cells assessed as inhibition of cell growth incubated for 72 hrs by CCK8 assay; type: toxicity, cell-based
# [2] = Cytotoxicity against HEK293T cells assessed as inhibition of cell growth incubated for 72 hrs by CCK8 assay; type: toxicity, cell-based, HEK-293T; conditions: human
# [3] = Selectivity index, ratio of IC50 for human HepG2 cells to IC50 for erythrocytic stage of Plasmodium falciparum 3D7; type: toxicity, cell-based; conditions: read-out: Ratio IC50
# [4] = Selectivity index, ratio of IC50 for HEK293T cells to IC50 for erythrocytic stage of Plasmodium falciparum 3D7; type: toxicity, cell-based; conditions: human, read-out: Ratio IC50
# [5] = test system: Plasmodium falciparum; assay: Inhibition of asynchronous ring stage Plasmodium falciparum 3D7 HDAC assessed as increase in histone H3 acetylation level at 20 times of IC50 concentration incubated for 2 hrs by Western blot analysis
# [6] = target: Histone deacetylase 1 (Homo sapiens, UniProt Q13547); assay: Inhibition of recombinant human HDAC1 using Ac-peptide as substrate preincubated for 15 mins followed by substrate addition and measured after 60 mins
# Histone deacetylase 1, sequence (Q13547 whole entry): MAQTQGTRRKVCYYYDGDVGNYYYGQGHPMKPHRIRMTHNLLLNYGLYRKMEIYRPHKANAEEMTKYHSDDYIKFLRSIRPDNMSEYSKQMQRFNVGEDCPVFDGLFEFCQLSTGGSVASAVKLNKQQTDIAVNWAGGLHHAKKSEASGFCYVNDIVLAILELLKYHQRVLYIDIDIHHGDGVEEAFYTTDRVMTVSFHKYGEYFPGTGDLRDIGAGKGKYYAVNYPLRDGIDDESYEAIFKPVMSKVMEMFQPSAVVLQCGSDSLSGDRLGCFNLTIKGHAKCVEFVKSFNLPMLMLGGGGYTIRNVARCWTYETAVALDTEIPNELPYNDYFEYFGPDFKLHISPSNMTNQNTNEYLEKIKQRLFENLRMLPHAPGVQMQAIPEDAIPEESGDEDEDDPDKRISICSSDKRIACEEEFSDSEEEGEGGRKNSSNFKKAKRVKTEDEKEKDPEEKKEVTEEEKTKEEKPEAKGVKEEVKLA
# [7] = target: Histone deacetylase 2 (Homo sapiens, UniProt Q92769); assay: Inhibition of recombinant human HDAC2 using Ac-peptide as substrate preincubated for 15 mins followed by substrate addition and measured after 60 mins
# Histone deacetylase 2, sequence (Q92769 whole entry): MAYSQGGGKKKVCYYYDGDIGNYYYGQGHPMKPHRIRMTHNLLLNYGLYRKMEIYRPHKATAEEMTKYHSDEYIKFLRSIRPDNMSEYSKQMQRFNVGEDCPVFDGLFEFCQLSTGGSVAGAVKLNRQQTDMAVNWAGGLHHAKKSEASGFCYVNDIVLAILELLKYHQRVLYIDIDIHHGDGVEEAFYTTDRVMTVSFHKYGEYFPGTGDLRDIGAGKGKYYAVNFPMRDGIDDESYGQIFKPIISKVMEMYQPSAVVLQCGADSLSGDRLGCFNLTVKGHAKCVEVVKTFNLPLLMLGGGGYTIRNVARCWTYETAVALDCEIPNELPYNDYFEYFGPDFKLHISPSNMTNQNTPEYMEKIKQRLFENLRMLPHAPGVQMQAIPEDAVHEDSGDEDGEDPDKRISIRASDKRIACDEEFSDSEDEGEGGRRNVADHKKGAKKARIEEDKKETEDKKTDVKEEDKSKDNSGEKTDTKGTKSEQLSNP
# [8] = target: T1, Protein deacetylase HDAC6 (Homo sapiens, UniProt Q9UBN7); assay: Inhibition of recombinant human HDAC6 using Ac-peptide as substrate preincubated for 15 mins followed by substrate addition and measured after 60 mins
# T1 sequence (Q9UBN7 whole entry): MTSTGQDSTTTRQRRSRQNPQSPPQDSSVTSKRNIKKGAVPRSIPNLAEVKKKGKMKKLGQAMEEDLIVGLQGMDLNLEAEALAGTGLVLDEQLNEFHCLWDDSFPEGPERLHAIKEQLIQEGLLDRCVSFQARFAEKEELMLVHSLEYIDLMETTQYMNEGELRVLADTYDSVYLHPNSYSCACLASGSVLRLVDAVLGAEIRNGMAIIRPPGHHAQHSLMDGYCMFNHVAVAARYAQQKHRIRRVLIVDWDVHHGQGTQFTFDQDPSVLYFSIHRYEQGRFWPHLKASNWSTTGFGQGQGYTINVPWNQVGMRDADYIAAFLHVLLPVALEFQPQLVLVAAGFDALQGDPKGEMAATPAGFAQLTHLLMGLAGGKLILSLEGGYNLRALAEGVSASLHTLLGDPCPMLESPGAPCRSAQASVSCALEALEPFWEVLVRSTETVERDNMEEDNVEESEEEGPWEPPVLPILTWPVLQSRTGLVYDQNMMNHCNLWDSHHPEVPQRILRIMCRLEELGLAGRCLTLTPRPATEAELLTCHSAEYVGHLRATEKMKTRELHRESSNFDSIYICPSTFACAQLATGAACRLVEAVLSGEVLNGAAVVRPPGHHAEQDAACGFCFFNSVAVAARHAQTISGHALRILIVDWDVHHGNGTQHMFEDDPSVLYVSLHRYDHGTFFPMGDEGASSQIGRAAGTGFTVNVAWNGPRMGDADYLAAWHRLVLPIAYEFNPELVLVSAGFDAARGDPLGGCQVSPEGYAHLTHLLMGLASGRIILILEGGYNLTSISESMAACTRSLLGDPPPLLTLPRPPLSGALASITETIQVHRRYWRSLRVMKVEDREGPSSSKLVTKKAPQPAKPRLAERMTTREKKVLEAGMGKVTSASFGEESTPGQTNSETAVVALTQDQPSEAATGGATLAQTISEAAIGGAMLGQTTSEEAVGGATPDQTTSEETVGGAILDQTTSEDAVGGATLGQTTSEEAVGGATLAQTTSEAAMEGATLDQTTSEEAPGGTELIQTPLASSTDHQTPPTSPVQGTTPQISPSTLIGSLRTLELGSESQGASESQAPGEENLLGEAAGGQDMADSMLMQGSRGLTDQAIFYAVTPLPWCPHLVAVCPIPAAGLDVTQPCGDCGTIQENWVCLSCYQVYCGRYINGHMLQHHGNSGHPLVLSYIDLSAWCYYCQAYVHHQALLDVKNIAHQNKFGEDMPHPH
# [9] = target: T2, Histone deacetylase 8 (Homo sapiens, UniProt Q9BY41); assay: Inhibition of recombinant human HDAC8 using Ac-peptide as substrate preincubated for 15 mins followed by substrate addition for 240 mins and measured after 120 mins of trypsin addition
# T2 sequence (Q9BY41 whole entry): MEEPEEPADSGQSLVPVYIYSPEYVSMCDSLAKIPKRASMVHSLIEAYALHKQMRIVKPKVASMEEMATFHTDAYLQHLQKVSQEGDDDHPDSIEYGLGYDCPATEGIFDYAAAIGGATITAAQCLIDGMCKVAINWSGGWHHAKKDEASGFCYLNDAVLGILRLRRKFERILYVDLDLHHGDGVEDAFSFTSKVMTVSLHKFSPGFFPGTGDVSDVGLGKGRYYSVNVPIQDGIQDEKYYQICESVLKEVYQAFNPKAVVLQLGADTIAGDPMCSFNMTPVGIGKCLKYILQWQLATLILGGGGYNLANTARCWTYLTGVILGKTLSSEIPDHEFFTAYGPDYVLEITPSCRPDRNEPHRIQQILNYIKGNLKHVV
# [10] = Metabolic stability in mouse liver microsomes assessed as half-life measured upto 45 mins in presence of NADPH by LC-MS/MS analysis; type: ADME, Microsome
# [11] = Metabolic stability in mouse liver microsomes assessed as clearance measured upto 45 mins in presence of NADPH by LC-MS/MS analysis; type: ADME, Microsome; conditions: read-out: CLH
# [12] = test system: Plasmodium yoelii; assay: Antimalarial activity against erythrocytic stage of Plasmodium yoelli infected in female mouse model assessed as reduction in parasitemia at 30 mg/kg, ip pre-infected with parasite followed by twice daily compound administration from day 3 to 6 by microscopic analysis; type: functional, organism-based; conditions: time 4.0 day
# [13] = Toxicity in female mouse model infected with erythrocytic stage of Plasmodium yoelli assessed as animal death at 30 mg/kg, ip pre-infected with parasite followed by twice daily compound administration from day 3 to 6; type: organism-based; conditions: in vivo, 96 h, time 4 day
# [14] = Tmax in female Balb/c mouse at 5 mg/kg, ip measured after 24 hrs by LC-MS/MS analysis; type: ADME, organism-based; conditions: in vivo
# [15] = Cmax in female Balb/c mouse at 5 mg/kg, ip measured after 24 hrs by LC-MS/MS analysis; type: ADME, organism-based; conditions: in vivo
# [16] = Half-life in female Balb/c mouse at 5 mg/kg, ip measured after 24 hrs by LC-MS/MS analysis; type: ADME, organism-based; conditions: in vivo
# [17] = AUC (0 to infinity) in female Balb/c mouse at 5 mg/kg, ip measured after 24 hrs by LC-MS/MS analysis; type: ADME, organism-based; conditions: in vivo
# [18] = Apparent volume of distribution during terminal phase in female Balb/c mouse at 5 mg/kg, ip measured after 24 hrs by LC-MS/MS analysis; type: ADME, organism-based; conditions: in vivo, read-out: Vz/F
# [19] = test system: Plasmodium falciparum; assay: microbe, parasite or virus in culture; conditions: 3D7, 72 h
# Description: Antimalarial activity against erythrocytic stage of Plasmodium falciparum 3D7 assessed as inhibition of growth incubated for 72 hrs by SYBR green I based assay
# [20] = test system: Plasmodium falciparum; assay: microbe, parasite or virus in culture; conditions: Dd2, 72 h
# Description: Antimalarial activity against erythrocytic stage of chloroquine-resistant Plasmodium falciparum Dd2 assessed as inhibition of growth incubated for 72 hrs by SYBR green I based assay
# [21] = test system: Plasmodium falciparum; assay: microbe, parasite or virus in culture; conditions: 72 h
# Description: Antimalarial activity against quinine and chloroquine resistant Plasmodium falciparum clinical isolate C2A assessed as inhibition of growth incubated for 72 hrs by SYBR green I based assay
compound,measurement,setting,value
Cc1ccc2c(CN[C@H]3CC[C@@H](Nc4ncc(C(=O)NO)cn4)CC3)cn(C)c2c1.Cl,IC50 at 72 h,[1],5290 nM
same,IC50 at 72 h,[2],7750 nM
same,selectivity ratio,[3],469
same,selectivity ratio,[4],687
same,inhibition,[5],Active
same,IC50,[6],4.9 nM
same,IC50,[7],11 nM
same,IC50,[8],60 nM
same,IC50,[9],43 nM
same,half-life,[10],39 min
same,CLint scaled,[11],140 mL/min/kg
same,Activity,[12],Active; Only Slight Recurrence Of Parasitemia Was Observed Upon Cessation Of Treatment
same,Activity,[13],Toxic
same,Tmax,[14],15 min
same,Cmax,[15],803 ng/mL
same,half-life,[16],114 min
same,AUC(0-inf),[17],853 ng·h/mL
same,Vd/F,[18],16.1 L/kg
same,IC50,[19],11.3 nM
same,IC50,[20],19.4 nM
same,IC50,[21],24.7 nM
